From US8008303B2, “Biphenyl derivatives and their use in treating hepatitis C” (AstraZeneca AB, priority 2005, dated 2011)
Where two headings read alike, the source gives them in different places.

Tests used:
[1] = system: HCV replicon cells Huh 9B; experiment: HCV replicon assay (luciferase readout); assay type: cell-based
In short: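 Compounds, made up at twice final strength (final DMSO 1%), were added to subgenomic replicon cells one day after plating. Incubation then ran 72 h at 37 °C, 5% CO2, without G418. Replication was quantified as firefly luciferase luminescence in lysed cells, with cytotoxicity assessed on a duplicate clear plate.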

[2] = system: HCV replicon cells Huh 9B; assay type: cell-based
[3] = Hepatitis C virus, 72 h, concentration reducing replicon level (luciferase activity) by 50% vs untreated cell control, 72 h incubation
[4] = concentration reducing total cell area by 50% relative to DMSO controls, methylene blue, absorbance 620 nm, 72 h incubation

With `Cc1ccc(C(=O)Nc2ccc(N3CCOCC3)cc2)cc1-c1ccc(C(=O)Nc2ccc(N)cc2)cc1` [Example 53, 6-Methyl-biphenyl-3,4′-dicarboxylic acid 4′-[(4-amino-phenyl)-amide] 3-[(4-morpholin-4-yl-phenyl)-amide]] the IC50 [1] was 1000 to 5000 nM and the TD50 [2] was “** (key: * < 50 μM; ** > 50 μM)”.

`Cc1ccc(C(=O)NCCC(C)C)cc1-c1ccc(C(=O)Nc2ccc(CN3CCS(=O)(=O)CC3)cc2)cc1` [Example 122, 6-Methyl-biphenyl-3,4′-dicarboxylic acid 4′-{[4-(1,1-dioxo-1lambda*6*-thiomorpholin-4-ylmethyl)-phenyl]-amide} 3-[(3-methyl-butyl)-amide]] was tested, and the IC50 [1] was < 1000 nM and the TD50 [2] was “* (key: * < 50 μM; ** > 50 μM)”.

For `Cc1ccc(NC(=O)CCC2CCCCC2)cc1-c1ccc(C(=O)Nc2ccc(CN3CCS(=O)(=O)CC3)cc2)cc1` [Example 163, 5′-(3-Cyclohexyl-propionylamino)-2′-methyl-biphenyl-4-carboxylic acid [4-(1,1-dioxo-1lambda*6*-thiomorpholin-4-ylmethyl)-phenyl]-amide], the IC50 [1, 3] was < 1000 nM and the TD50 [2, 4] was “* (* < 50 μM)”.

`Cc1ccc(C(=O)Nc2ccc(C(=O)N3CCOCC3)cc2)cc1-c1ccc(C(=O)Nc2ccc(CN3CCS(=O)(=O)CC3)cc2)cc1` [Example 140, 6-Methyl-biphenyl-3,4′-dicarboxylic acid 4′-{[4-(1,1-dioxo-1lambda*6*-thiomorpholin-4-ylmethyl)-phenyl]-amide} 3-{[4-(morpholine-4-carbonyl) -phenyl]-amide}] was tested, and the IC50 [1] was 1000 to 5000 nM and the TD50 [2] was “* (key: * < 50 μM; ** > 50 μM)”.

`Cc1ccc(C(=O)Nc2ccc(N3CCOCC3)cc2)cc1-c1ccc(C(=O)Nc2ccc(C(=O)N3CCCCC3)cc2)cc1` [Example 58, 6-Methyl-biphenyl-3,4′-dicarboxylic acid 3-[(4-morpholin-4-yl-phenyl)-amide] 4′-{[4-(piperidine-1-carbonyl)-phenyl]-amide}] was tested, and the IC50 [1] was 1000 to 5000 nM and the TD50 [2] was “** (key: * < 50 μM; ** > 50 μM)”.

With `Cc1ccc(NC(=O)NC2CCCCC2)cc1-c1ccc(C(=O)Nc2ccc(CN3CCS(=O)(=O)CC3)cc2)cc1` [Example 189, 5′-(3-Cyclohexyl-ureido)-2′-methyl-biphenyl-4-carboxylic acid [4-(1,1-dioxo-1lambda*6*-thiomorpholin-4-ylmethyl)-phenyl]-amide] the IC50 [1, 3] was < 1000 nM and the TD50 [2, 4] was “* (* < 50 μM)”.

In the case of `Cc1ccc(C(=O)Nc2ccc(N3CCOCC3)cc2)cc1-c1ccc(CNCCN(C)C)cc1` [Example 102, 4′-[(2-Dimethylamino-ethylamino)-methyl]-6-methyl-biphenyl-3-carboxylic acid (4-morpholin-4-yl-phenyl)-amide], the IC50 [1, 3] is reported as 1000 to 5000 nM and the TD50 [2, 4] is reported as “* (* < 50 μM)”.

`O=C(Nc1ccc(CN2CCS(=O)(=O)CC2)cc1)c1ccc(-c2cccc(C(=O)Nc3ccc(N4CCOCC4)cc3)c2)cc1` [Example 120, Biphenyl-3,4′-dicarboxylic acid 4′-{[4-(1,1-dioxo-1lambda*6 *-thiomorpholin-4-ylmethyl)-phenyl]-amide} 3-[(4-morpholin-4-yl-phenyl)-amide]] was tested, and the IC50 [1] was 1000 to 5000 nM and the TD50 [2] was “** (key: * < 50 μM; ** > 50 μM)”.

`Cc1ccc(C(=O)Nc2ccc(N3CCOCC3)cc2)cc1-c1ccc(C(=O)Nc2ccc3c(c2)OCO3)cc1` [Example 16, 6-Methyl-biphenyl-3,4′-dicarboxylic acid 4′-benzo[1,3]dioxol-5-ylamide 3-[(4-morpholin-4-yl-phenyl)-amide]] was tested, and the IC50 [1] was 1000 to 5000 nM and the TD50 [2] was “** (key: * < 50 μM; ** > 50 μM)”.

With `Cc1ccc(C(=O)Nc2ccc(N3CCOCC3)cc2)cc1-c1ccc(C(=O)Nc2cccc(OCc3ccccc3)c2)cc1` [Example 8, 6-Methyl-biphenyl-3,4′-dicarboxylic acid 4′-[(3-benzyloxy-phenyl)-amide] 3-[(4-morpholin-4-yl-phenyl)-amide]] the IC50 [1] was 1000 to 5000 nM and the TD50 [2] was “** (key: * < 50 μM; ** > 50 μM)”.

With `CS(=O)(=O)N1CCN(Cc2ccc(NC(=O)c3ccc(-c4cc(C(=O)Nc5ccc(N6CCOCC6)cc5)ccc4OC(F)(F)F)cc3)cc2)CC1` [Example 256, 6-Trifluoromethoxy-biphenyl-3,4′-dicarboxylic acid 4′-{[4-(4-methanesulfonyl-piperazin-1-ylmethyl)-phenyl]-amide} 3-[(4-morpholin-4-yl-phenyl)-amide]] the IC50 [1] was < 1000 nM and the TD50 [2] was “* (key: * < 50 μM; ** > 50 μM)”.

`COCCNC(=O)c1ccc(C)c(-c2ccc(C(=O)Nc3ccc(CN4CCS(=O)(=O)CC4)cc3)cc2)c1` [Example 126, 6-Methyl-biphenyl-3,4′-dicarboxylic acid 4′-{[4-(1,1-dioxo-1lambda*6*-thiomorpholin-4-ylmethyl)-phenyl]-amide} 3-[(2-methoxy-ethyl)-amide]] was tested, and the IC50 [1] was 1000 to 5000 nM and the TD50 [2] was “* (key: * < 50 μM; ** > 50 μM)”.

In the case of `Cc1cccc(CNC(=O)c2ccc(-c3cc(NC(=O)c4ccncc4)ccc3C)cc2)c1` [Example 215, N-[6-Methyl-4′-(3-methyl-benzylcarbamoyl)-biphenyl-3-yl]-isonicotinamide], the IC50 [1, 3] is reported as > 5000 nM and the TD50 [2, 4] is reported as “* (* < 50 μM)”.

`Cc1ccc(C(=O)Nc2ccc(N3CCOCC3)cc2)cc1-c1ccc(C(=O)N[C@H](CO)Cc2c[nH]c3ccccc23)cc1` [Example 51, 6-Methyl-biphenyl-3,4′-dicarboxylic acid 4′-{[(S)-1-hydroxymethyl-2-(1H-indol-3-yl)-ethyl]-amide} 3-[(4-morpholin-4-yl-phenyl)-amide]] was tested, and the IC50 [1] was 1000 to 5000 nM and the TD50 [2] was “** (key: * < 50 μM; ** > 50 μM)”.

`COc1ccc(S(=O)(=O)Nc2ccc(N3CCOCC3)cc2)cc1-c1ccc(C(=O)Nc2ccc(CN3CCN(S(=O)(=O)N(C)C)CC3)cc2)cc1` [Example 247, 2′-Methoxy-5′-(4-morpholin-4-yl-phenylsulfamoyl)-biphenyl-4-carboxylic acid [4-(4-dimethylsulfamoyl-piperazin-1-ylmethyl)-phenyl]-amide] was tested, and the IC50 [1, 3] was < 1000 nM and the TD50 [2, 4] was “* (* < 50 μM)”.

With `Cc1ccc(NC(=O)C2CCOCC2)cc1-c1ccc(C(=O)Nc2ccc(CN3CCS(=O)(=O)CC3)cc2)cc1` [Example 170, Tetrahydro-pyran-4-carboxylic acid {4′-[4-(1,1-dioxo-1lambda*6*-thiomorpholin-4-ylmethyl)-phenylcarbamoyl]-6-methyl-biphenyl-3-yl}-amide] the IC50 [1, 3] was < 1000 nM and the TD50 [2, 4] was “* (* < 50 μM)”.

With `Cc1ccc(NC(=O)C2(C)CC2)cc1-c1ccc(C(=O)Nc2ccc(CN3CCS(=O)(=O)CC3)cc2)cc1` [Example 175, 2′-Methyl-5′-[(1-methyl-cyclopropanecarbonyl)-amino]-biphenyl-4-carboxylic acid [4-(1,1-dioxo-1lambda*6*-thiomorpholin-4-ylmethyl)-phenyl]-amide] the IC50 [1, 3] was < 1000 nM and the TD50 [2, 4] was “* (* < 50 μM)”.

For `CCCCNS(=O)(=O)c1cccc(NC(=O)c2ccc(-c3cc(C(=O)Nc4ccc(N5CCOCC5)cc4)ccc3C)cc2)c1` [Example 21, 6-Methyl-biphenyl-3,4′-dicarboxylic acid 4′-[(3-butylsulfamoyl-phenyl)-amide] 3-[(4-morpholin-4-yl-phenyl)-amide]], the IC50 [1] was 1000 to 5000 nM and the TD50 [2] was “** (key: * < 50 μM; ** > 50 μM)”.

With `Cc1ccc(NC(=O)C2CCCCC2)cc1-c1ccc(C(=O)Nc2ccc(CO)cc2)cc1` [Example 232, 5′-(Cyclohexanecarbonyl-amino)-2′-methyl-biphenyl-4-carboxylic acid (4-hydroxymethyl-phenyl)-amide] the IC50 [1, 3] was < 1000 nM and the TD50 [2, 4] was “* (* < 50 μM)”.

For `Cc1ccc(NC(=O)c2ccc(N3CCOCC3)cc2)cc1-c1ccc(C(=O)NCc2cccc(OC(F)(F)F)c2)cc1` [Example 92, 2′-Methyl-5′-(4-morpholin-4-yl-benzoylamino)-biphenyl-4-carboxylic acid 3-trifluoromethoxy-benzylamide], the IC50 [1, 3] was 1000 to 5000 nM and the TD50 [2, 4] was “** (** > 50 μM)”.

In the case of `COc1ccc(C(=O)Nc2ccc(-c3cc(C(=O)Nc4ccc(N5CCOCC5)cc4)ccc3C)cc2)cc1OC` [Example 110, 4′-(3,4-Dimethoxy-benzoylamino)-6-methyl-biphenyl-3-carboxylic acid (4-morpholin-4-yl-phenyl)-amide], the IC50 [1, 3] is reported as 1000 to 5000 nM and the TD50 [2, 4] is reported as “** (** > 50 μM)”.

For `Cc1ccc(C(=O)Nc2ccc(CN3CCS(=O)(=O)CC3)cc2)cc1-c1ccc(C(=O)Nc2ccc(CN3CCS(=O)(=O)CC3)cc2)cc1` [Example 129, 6-Methyl-biphenyl-3,4′-dicarboxylic acid bis-{[4-(1,1-dioxo-1lambda*6*-thiomorpholin-4-ylmethyl)-phenyl]-amide}], the IC50 [1, 3] was < 1000 nM and the TD50 [2, 4] was “* (* < 50 μM)”.

`CS(=O)(=O)N1CCN(Cc2ccc(NC(=O)c3ccc(Cl)c(-c4ccc(C(=O)Nc5ccc(N6CCOCC6)cc5)cc4)c3)cc2)CC1` [Example 265, 6-Chloro-biphenyl-3,4′-dicarboxylic acid 3-{[4-(4-methanesulfonyl-piperazin-1-ylmethyl)-phenyl]-amide} 4′-[(4-morpholin-4-yl-phenyl)-amide]] was tested, and the IC50 [1] was < 1000 nM and the TD50 [2] was “* (key: * < 50 μM; ** > 50 μM)”.

With `Cc1ccc(NC(=O)c2ccc(Br)cc2)cc1-c1ccc(C(=O)Nc2ccc3cn[nH]c3c2)cc1` [Example 211, 5′-(4-Bromo-benzoylamino)-2′-methyl-biphenyl-4-carboxylic acid (1H-indazol-6-yl)-amide] the IC50 [1, 3] was 1000 to 5000 nM and the TD50 [2, 4] was “* (* < 50 μM)”.

For `Cc1ccc(CNC(CO)Cc2cnc[nH]2)cc1-c1ccc(C(=O)Nc2ccc(N3CCOCC3)cc2)cc1` (stereo not shown) [Example 95, 5′-{[1-Hydroxymethyl-2-(3H-imidazol-4-yl)-ethylamino]-methyl}-2′-methyl-biphenyl-4-carboxylic acid (4-morpholin-4-yl-phenyl)-amide], the IC50 [1, 3] was 1000 to 5000 nM and the TD50 [2, 4] was “* (* < 50 μM)”.

`Cc1ccc(C(=O)Nc2ccc(N3CCOCC3)cc2)cc1-c1ccc(NC(=O)c2cnccc2C(F)(F)F)cc1` [Example 111, N-[2′-Methyl-5′-(4-morpholin-4-yl-phenylcarbamoyl) -biphenyl-4-yl]-4-trifluoromethyl-nicotinamide] was tested, and the IC50 [1, 3] was > 5000 nM and the TD50 [2, 4] was “** (** > 50 μM)”.
